Assay [1] concerns the target NMDA receptor glycine site, rat cortical membranes (Rattus norvegicus (Rat), UniProt P35439). Nature of the assay: [3H] MK-801 binding assay (potentiation of [3H]MK-801 binding). As for the experimental part:
Assays were conducted as described in Moskal et al. (Moskal, J. R., Kuo, A. G., Weiss, C., Wood, P. L., O'Connor Hanson, A., Kelso, S., Harris, R. B., Disterhoft, J. F., 2005. GLYX-13: a monoclonal antibody-derived peptide that acts as an N-methyl-D-aspartate receptor modulator. Neuropharmacology. 49, 1077-87) The potentiation of [^3H]MK-801 binding (5 nM; 22.5 Ci/mmol) to well washed rat cortical membranes (200 μg) was measured under non-equilibrium conditions (15 min @ 25° C.) in the presence of increasing concentrations of test compounds and […]. Zero levels were determined in the absence of any glycine ligand and in the presence of 30 μM 5.7 DCKA. Maximal stimulation was measured in the presence of 1 mM glycine, and 500 μM glutamate was present in all samples. The facilitation of [^3H]MK-801 binding by tests compounds was calculated by using a 3 parameter log agonist vs. response equation (Graph pad Prism, USA) and potency (EC50, expressed in pM) and maximal activity (% maximal stimulation) were calculated for the test compound.

Assay [2] concerns hippocampal slices, Schaffer collateral-CA1. The assay can be described thus: Long term potentiation in hippocampal slices. It is filed as cell-based, rat. Particulars: for LTP: LTP Augmentation (%): Table 4. How it is done:
Assays were conducted as described in Zhang et al. (Zhang, X. L., Sullivan, J. A., Moskal, J. R., Stanton, P. K., 2008. A NMDA receptor glycine site partial agonist, GLYX-13, simultaneously enhances LTP and reduces LTD at Schaffer collateral-CA1 synapses in hippocampus. Neuropharmacology. 55, 1238-50) Sprague-Dawley rats (12-18 days old; Taconic Farms) were deeply anesthetized with isoflurane and decapitated. Rat brains were removed rapidly, submerged in ice-cold artificial cerebrospinal fluid (ACSF, 2-4° C.), which contained (in mM): 124 NaCl, 4 KCl, 2 MgSO4, 2 CaCl2, 1.25 NaH2PO4, 26 NaHCO3, 10 glucose; at pH 7.4, gassed continuously with 95% O2/5% CO2). The rat brains were hemisected, the frontal lobes cut off, and individual hemispheres glued using cyanoacrylate adhesive onto a stage immersed in ice-cold ACSF gassed continuously with 95% O2/5% CO2 during slicing. Coronal slices (400 μm thick) were cut using a Vibratome (Leica VT1200S), and transferred to an interface holding chamber for incubation at room temperature for a minimum of one hour before transferring to a Haas-style interface recording chamber continuously perfused at 3 ml/min with oxygenated ACSF at 32±0.5° C. Low resistance recording electrodes were made from thin-walled borosilicate glass (1-2 MΩ after filling with ACSF) and inserted into the apical dendritic region of the Schaffer collateral termination field in stratum radiatum of field CA1 region to record field excitatory postsynaptic potentials (fEPSPs). A bipolar stainless steel stimulating electrode (FHC Co.) was placed on Schaffer collateral-commissural fibers in CA3 stratum radiatum, and constant current stimulus intensity adjusted to evoke approximately half-maximal fEPSPs once each 30 s ([…]; 100 μs duration). fEPSP slope was measured before and after induction of LTP by linear interpolation from 20 to 80% of maximum negative deflection, and slopes confirmed to be stable to within ±10% for at least 15 min before commencing an experiment. […] LTP was induced by stimulation of Schaffer collateral axons with four high frequency theta burst stimulus trains of 10×100 Hz/5 pulse bursts each, applied at an inter-burst interval of 200 ms. Each train was 2 seconds in duration, and trains were applied 15 seconds apart. The signals were recorded using a Multiclamp 700B amplifier and digitized with a Digidata 1322 (Axon Instruments, USA). Data were analyzed using pClamp software (version 9, Axon Instruments) on an IBM-compatible personal computer.

Assay [3] can be described thus: Porsolt test, floating time inhibition. It is filed as in vivo. Particulars: 1 hour post dose.
Where [4] appears, read: Table 3, read-out: [3H] MK-801 binding assay: EC50.
[5] abbreviates: Table 4, rat cortex, read-out: MK-801 Glycine Site Binding Assay: Rat Cortex EC50.

Data on eleven compounds can be found in patent publication US12167998B2, “Spiro-lactam NMDA receptor modulators and uses thereof” (Tenacia Biotechnology (Hong Kong) Co., Limited, priority 2013, dated 2024).

Read-outs that look alike come from different tables or passages of the source.

For the compound `C[C@@H](O)[C@@H](C(N)=O)N1CC2(CCCN2)C1=O` (stereo partly drawn) [Compound 2S-FNL-3, (2S,3R)-3-hydroxy-2-(1-oxo-2,5-diazaspiro[3.4]octan-2-yl) butanamide], the EC50 in assay [1] (setting [4]) amounted to 54.3 nM. The “Unified Activity Data: LTP Augmentation (Percent)” value in assay [2] (LTP concentration 1 uM) worked out at 130%. Moreover, the “Unified Activity Data: Porsolt Floating Time Inhibition (Percent)” value in assay [3] (3 mg/kg IV) is on record as 80%.
With `C[C@@H](O)[C@@H](C(=O)NCc1ccccc1)N1CC2(CCCN2C(=O)OC(C)(C)C)C1=O` (stereo partly drawn) [Compound 2S-FNL-10, tert-butyl 2-((2S,3R)-1-(benzylamino)-3-hydroxy-1-oxobutan-2-yl)-1-oxo-2,5-diazaspiro[3.4] octane-5-carboxylate], the EC50 in assay [1] (setting [5]) was found to be 0.00119 nM. Besides, the “LTP: LTP Augmentation (%)” value in assay [2] (LTP concentration 1 uM) stood at 90%.
As for `NC(=O)[C@H](CO)N1CC2(CCCN2)C1=O` (stereo partly drawn) [Compound 2S-FNL-21, (2S)-3-hydroxy-2-(1-oxo-2,5-diazaspiro[3.4]octan-2-yl)propanamide], the “Unified Activity Data: LTP Augmentation (Percent)” value in assay [2] (LTP concentration 0.1 uM) is reported as 80%.
Regarding `CC1CCC2(N1)C(=O)N([C@H](C(=O)N1CCCC1)[C@@H](C)O)C2C` (stereo partly drawn) [Compound 2S-FNL-38, 2-((2S,3R)-3-hydroxy-1-oxo-1-(pyrrolidin-1-yl)butan-2-yl)-3,6-dimethyl-2,5-diazaspiro[3.4]octan-1-one], in assay [1] (setting [5]), the EC50 turned out to be 3.31 nM.
On to `C[C@@H](O)[C@@H](C(=O)NCc1ncno1)N1CC2(CCCN2C(=O)OC(C)(C)C)C1=O` (stereo partly drawn) [Compound 2S-FNL-14, tert-butyl 2-((2S,3R)-1-(((1,2,4-oxadiazol-5-yl)methyl)amino)-3-hydroxy-1-oxobutan-2-yl)-1-oxo-2,5-diazaspiro[3.4] octane-5-carboxylate], for which the EC50 in assay [1] (setting [5]) was 0.0613 nM. Moreover, the “LTP: LTP Augmentation (%)” value in assay [2] (LTP concentration 1 uM) is 120%.
As to `CC1CCC2(CN([C@H](C(N)=O)[C@@H](C)O)C2=O)N1` (stereo partly drawn) [Compound 2S-FNL-34, (2S,3R)-3-hydroxy-2-(6-methyl-1-oxo-2,5-diazaspiro[3.4]octan-2-yl) butanamide], in assay [2] (LTP concentration 0.1 uM), the “Unified Activity Data: LTP Augmentation (Percent)” value is listed as 100%. In addition, in assay [3] (1 mg/kg PO), the “Unified Activity Data: Porsolt Floating Time Inhibition (Percent)” value was 73%.
The Emax is the greatest response seen or fitted, relative to the assay's reference. Usually pEC50 stands for the negative decadic logarithm of the EC50, by convention in mol/L. `C[C@@H](O)[C@@H](C(N)=O)N1CC2(CCCN2)C1=O` (stereo partly drawn) [Compound X, (2S,3R)-3-hydroxy-2-(1-oxo-2,5-diazaspiro[3,4]octan-2-yl)butanamide]: the Emax in assay [1] (maximal stimulation measured with 1 mM glycine) worked out at 38%. Also, the pEC50 in assay [1] (rat cortical membranes, 50 μM glutamate) stood at 7.4. The EC50 in assay [1] (rat cortical membranes, 50 μM glutamate, read-out: pEC50 (converted)) was 39.8 nM. For the same compound, in assay [2] (tested at 1 μM, FIG. 2), the “long-term potentiation after high frequency stimulation of Schaffer collateral-evoked NMDA e.p.s.c.s in CA1 pyramidal neurons” value is recorded as “increased long-term potentiation”.
For the compound `CC(=O)O[C@H](C)[C@@H](C(=O)N1CCCC1)N1CC2(CCCN2)C1=O` (stereo partly drawn) [Compound 2S-FNL-27, (2R,3S)-4-oxo-3-(1-oxo-2,5-diazaspiro[3.4]octan-2-yl)-4-(pyrrolidin-1-yl) butan-2-yl acetate], in assay [1] (setting [4]), the EC50 is 0.00349 nM.
For `CC(N)C(C(N)=O)N1CC2(CCCN2)C1=O` (stereo not drawn) [Compound 2S-FNL-7, 3-amino-2-(1-oxo-2,5-diazaspiro[3.4]octan-2-yl)butanamide], in assay [1] (setting [4]), the EC50 came to 11 nM.
With `CC1CCC2(CN([C@H](C(N)=O)[C@@H](C)O)C2=O)N1C(=O)OC(C)(C)C` (stereo partly drawn) [Compound 2S-FNL-33, tert-butyl 2-((2S,3R)-1-amino-3-hydroxy-1-oxobutan-2-yl)-6-methyl-1-oxo-2,5-diazaspiro[3.4] octane-5-carboxylate], the EC50 in assay [1] (setting [5]) was 18.9 nM. Further, the “LTP: LTP Augmentation (%)” value in assay [2] (LTP concentration 1 uM) was determined as 140%.
In the case of `C[C@@H](O)[C@@H](C(N)=O)N1CC2(CCCN2C(=O)OC(C)(C)C)C1=O` (stereo partly drawn) [Compound 2S-FNL-2, tert-butyl 2-((2S,3R)-1-amino-3-hydroxy-1-oxobutan-2-yl)-1-oxo-2,5-diazaspiro[3,4] octane-5-carboxylate], the EC50 in assay [1] (setting [5]) was 20 nM.
